Experimental data: US20090320869A1, “METHODS FOR PREVENTING REVERSION OF RELAXED KERATINOUS FIBERS AND FOR RELAXING KERATINOUS FIBERS” (L'Oreal, S.A.,, priority 2003, published 2009)

Legend:
Set-up in all cases: species or system human
[1] = Effect of pH of D-xylose solutions on hair relaxed with 2.0% sodium hydroxide (Example 3); details: for % Reversion / % Straightening: 2.0% NaOH + 5% D-Xylose, flat iron 1 min 130° C., 24 h at 90% RH
Description: [formula] The percent reversion (“% reversion”)=100%−(% straightening) Virgin African-American (kinky) hair was processed with 2.0% sodium hydroxide for 20 min at room. Next, the sodium hydroxide solution was washed off, the swatch was profusely rinsed with tepid water, and the treatment solution was applied for 10 min at 45° C. The treatment solutions included: buffer solution, pH 2.0; buffer solution, pH 6.0; buffer solution, pH 10.0; 5% D-xylose, pH 2.0; 5% D-xylose, pH 6.5; and 5% D-xylose, pH 10. The solutions were buffered using phosphoric acid and sodium hydroxide. Next, the swatch was briefly rinsed to remove an excess of the treatment solution from the hair surface, blow-dried, and heat was applied in the form of a flat iron for 1 min. (130° C.). The heat-treated swatch was rinsed with tepid water, air-dried at 50% RH (25° C.), and maintained for 24 h at 90% RH (25° C.). The percent hair straightening was determined as in Example 1.

[2] = Effect of D-xylose concentration on hair relaxed with a commercial alkali relaxer (Example 4); details: for % Reversion / % Straightening: flat iron 1 min 175° C., 1 h at 100% RH
Description: [formula] The percent reversion (“% reversion”)=100%−(% straightening) Virgin African-American (kinky) hair was processed with an alkali relaxer as follows. The commercial cream relaxer was applied to a swatch of hair for 10 min at room temperature. Next, the cream was washed off, the swatch was profusely rinsed with tepid water, and the treatment solution was applied for 5 min. The treatment solutions included water; 1% D-xylose; 3% D-xylose; and 5% D-xylose. Next, the swatch was briefly rinsed to remove an excess of the treatment solution from the hair surface, blow-dried, and heat was applied in the form of a flat iron for 1 min (175° C.). The heat-treated swatch was rinsed with tepid water, air-dried at 50% RH (25° C.), and maintained for 1 h at 100% RH (25° C.). The percent hair straightening was determined as in Example 1.

[3] = Percent straightening / reversion of hair relaxed with various concentrations of sodium hydroxide, D-xylose post-treatment and heat (Example 2); details: for % Reversion / % Straightening: flat iron 1 min 130° C., 24 h at 90% RH
Description: [formula] The percent reversion (“% reversion”)=100%−(% straightening) Virgin African-American (kinky) hair was processed with different concentrations of sodium hydroxide for 20 min at room temperature: 1.0%, 1.5%, 2.0%, and 2.5% NaOH, respectively. Next, the sodium hydroxide solution was washed off, the swatch was profusely rinsed with tepid water, and the treatment solution was applied for 5 min at room temperature. The treatment solutions included water and 5% D-xylose. Next, the swatch was briefly rinsed to remove an excess of the treatment solution from the hair surface, blow-dried, and heat was applied in the form of a flat iron for 1 min (130° C.). The heat-treated swatch was rinsed with tepid water, air-dried at 50% RH (25° C.), and maintained for 24 h at 90% RH (25° C.). The percent hair straightening was determined as in Example 1.

[4] = Effect of D-xylose on hair relaxed with a commercial thioglycolate relaxer (Example 5); details: for % Reversion / % Straightening: flat iron 30 sec 175° C., 1 h at 100% RH
Description: [formula] The percent reversion (“% reversion”)=100%−(% straightening) Virgin African-American (kinky) hair was processed with a commercial thioglycolate cream relaxer as follows. The thioglycolate cream relaxer was applied to a swatch of kinky hair for 15 min at room temperature (reduced hair). Next, the thioglycolate cream was washed off, the swatch was profusely rinsed with tepid water, and a hydrogen peroxide cream was applied for 5 min. The treatment solutions included: water and 5% D-xylose. The treatment solutions were applied either between the rinsing of the thioglycolate cream relaxer and the application of the hydrogen peroxide cream, or after the application of the hydrogen peroxide cream, respectively. The treatment solutions was applied for 5 min at room temperature. Next, the swatch was briefly rinsed to remove an excess of the treatment solution from the hair surface, blow-dried, and heat was applied in the form of a flat iron for 30 sec (175° C.). The heat-treated swatch was rinsed with tepid water, air-dried at 50% RH (25° C.), and maintained for 1 h at 100% RH (25° C.). The percent hair straightening was determined as in Example 1.

[5] = Percent straightening / reversion of hair relaxed with 2.5% sodium hydroxide, D-xylose post-treatment and heat (Example 1); details: for % Reversion / % Straightening: flat iron five strokes 130° C., 24 at 90% RH (25° C.)
Description: Virgin African-American (kinky) hair was processed and 2.5% sodium hydroxide for 20 min at room temperature. Next, the sodium hydroxide solution was washed off, the swatch was profusely rinsed with tepid water, and the treatment solution was applied for 5 min at room temperature. The treatment solutions included: water; 1% D-xylose; and 5% D-xylose. Next, the swatch was briefly rinsed to remove an excess of the treatment solution from the hair surface, blow-dried, and heat was applied in the form of five strokes with a flat iron (130° C.). The heat-treated swatch was rinsed with tepid water, air-dried at 50% RH (25° C.), and maintained for 24 at 90% RH (25° C.). The percent hair straightening (“% straightening”) was determined as follows: [formula] The percent reversion (“% reversion”)=100%−(% straightening)

[6] = commercial alkali cream relaxer 10 min + 1% D-Xylose 5 min
[7] = commercial alkali cream relaxer 10 min + 3% D-Xylose 5 min
[8] = commercial alkali cream relaxer 10 min + 5% D-Xylose 5 min
[9] = thioglycolate reduced hair + 5% D-Xylose, then hydrogen peroxide
[10] = thioglycolate reduced hair + hydrogen peroxide, then 5% D-Xylose
[11] = 2.5% NaOH 20 min + 1% D-Xylose 5 min
[12] = 2.5% NaOH 20 min + 5% D-Xylose 5 min

What does the source list for `O=C[C@H](O)[C@@H](O)[C@H](O)CO` [D-Xylose, D-xylose]?
% Reversion ([1]; pH 2.0, 10 min at 45° C.): 20.0%; % Straightening ([1]; pH 2.0, 10 min at 45° C.): 80.0%; % Reversion ([1]; pH 6.5, 10 min at 45° C.): 10.0%; % Straightening ([1]; pH 6.5, 10 min at 45° C.): 90.0%; % Reversion ([1]; pH 10.0, 10 min at 45° C.): 0.00%; % Straightening ([1]; pH 10.0, 10 min at 45° C.): 100%; reversion of relaxed hair (in words) ([1]; post-treatment with a D-Xylose solution vs buffer solution at various pH values): prevented reversion of the relaxed hair better than post-treatment with a buffer solution; % Reversion [2, 6]: 30.9%; % Straightening [2, 6]: 69.1%; % Reversion [2, 7]: 24.0%; % Straightening [2, 7]: 76.0%; % Reversion [2, 8]: 22.0%; % Straightening [2, 8]: 78.0%; reversion of relaxed hair (in words) ([2]; post-treatment with various concentrations of D-xylose vs water, commercial alkali relaxer): prevented reversion of the relaxed hair; % Reversion ([3]; 1.0% NaOH + 5% D-Xylose): 42.9%; % Straightening ([3]; 1.0% NaOH + 5% D-Xylose): 57.1%; % Reversion ([3]; 1.5% NaOH + 5% D-Xylose): 21.4%; % Straightening ([3]; 1.5% NaOH + 5% D-Xylose): 78.6%; % Reversion ([3]; 2.0% NaOH + 5% D-Xylose): 0%; % Straightening ([3]; 2.0% NaOH + 5% D-Xylose): 100%; % Reversion ([3]; 2.5% NaOH + 5% D-Xylose): 0%; % Straightening ([3]; 2.5% NaOH + 5% D-Xylose): 100%; curl reversion in relaxed kinky hair (in words) ([3]; post-treatment with a D-xylose solution vs water, 1.0-2.5% NaOH): prevented curl reversion in the relaxed kinky hair better than post-treatment with water; reversion of relaxed hair (in words) ([4]; post-treatment with a D-xylose solution, thioglycolate hair relaxer): prevented reversion; % Reversion [4, 9]: 0.00%; % Straightening [4, 9]: 100%; % Reversion [4, 10]: 14.0%; % Straightening [4, 10]: 86.0%; % Reversion [5, 11]: 7.2%; % Straightening [5, 11]: 92.8%; % Reversion [5, 12]: 0%; % Straightening [5, 12]: 100%; curl reversion in relaxed kinky hair (in words) ([5]; post-treatment with a D-xylose solution, hair relaxed with 2.5% NaOH): prevented curl reversion
